Results on 16 compounds are retold here after PubChem BioAssay (NCI).

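Five compound concentrations were applied to cells in 96-well plates for 48 hours; endpoints were derived by simple linear interpolation of the resulting dose-response curve. Here, GI50 denotes the concentration required for 50% inhibition of growth. TGI is the concentration that stops growth completely.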 Some results are limits rather than exact numbers.

Common to all, as to test: growth of human tumour cells (NCI), 48 h
Assay [1] concerns A498 renal.
Assay [2] relates to COLO 205 colon.
Assay [3] concerns NCI-H226 lung.
Assay [4] concerns OVCAR-8 ovarian.
Assay [5] deals with RPMI-8226 leukemia.
Assay [6] deals with SNB-19 CNS.
Assay [7] has as its system M14 melanoma.
In assay [8] the test system is OVCAR-4 ovarian.
Assay [9] concerns MDA-MB-231 breast.
Assay [10] relates to BT-549 breast.

For the compound `O=C(c1ccc(Cl)cc1)c1ccc(OCCSCCCCCCCCCCSCCOc2ccc(C(=O)c3ccc(Cl)cc3)cc2)cc1`, the TGI in [1], in [2], in assay [3], in assay [4], in assay [5] and in assay [6] was greater than 100 µM throughout.
Consider `COc1cc(Nc2nc3ccc(C(F)(F)F)cc3nc2-c2ccccc2)cc(OC)c1OC`, for which the TGI was 78 µM in assay [1]; greater than 100 µM in assay [7]; 65.6 µM in assay [3]; greater than 100 µM in assay [8]; greater than 100 µM in assay [4].
Regarding `CSc1ncnc2c1CCN2`, the GI50 in assay [2], in assay [7], in assay [4] and in assay [6] was greater than 100 µM in each case. For the same compound, the TGI in [2], in [7], in [4] and in [6] was greater than 100 µM in each case.
Regarding `Cc1ccc2c(c1)CNc1ccc(C)cc1CN2`, the TGI in assay [2], in [7], in assay [3], in assay [8], in assay [4] and in [5] was greater than 100 µM each time.
For `CCOC(=O)CSc1[nH]c(NC(=S)Nc2ccccc2)c(C(N)=O)c1C(N)=O`, the TGI in assay [2], in assay [7], in assay [9], in assay [8], in assay [4] and in assay [5] was greater than 10 µM each time.
With `N#CC1CC2(C(=O)C1=O)c1ccccc1-c1ccccc12` (stereo not given), the TGI in assay [1], in [2], in assay [7], in assay [3], in [8] and in assay [4] was greater than 100 µM each time. Moreover, the TGI in assay [6] was greater than 100 µM.
Consider `NNC(=O)/C(NC(=O)c1ccccc1)=C(\N)c1ccc(Cl)cc1`, for which the TGI in [1], in assay [2], in assay [7], in assay [3], in [8] and in assay [4] was greater than 100 µM throughout. In addition, the TGI in assay [5] and in assay [6] was greater than 100 µM in each case.
For `C1COCCOCCOCCOCCO1.CC(=O)[CH-]C(C)=O.CC(=O)[CH-]C(C)=O.CC(=O)[CH-]C(C)=O.[V]`, the GI50 in assay [1] was 25 µM; in assay [2], 18.7 µM; in assay [7], 5.59 µM; in assay [3], 37.1 µM; in [8], 0.56 µM; in assay [4], 30.6 µM. In addition, the GI50 in [5] was 20.5 µM; in [6], 15.3 µM. The TGI was 66.3 µM in assay [1]; 35.1 µM in assay [2]; 21 µM in assay [7]; greater than 100 µM in assay [3]; 3.81 µM in [8]; 76.3 µM in [4]. The results for the TGI in [5] and in [6] were 50 µM and 32.6 µM, respectively.
`O=c1c2ccccc2nc(-c2cccc(Cl)c2)n1NCC1(O)OCC(O)C(O)C1O` (stereo not given): the TGI in [1], in assay [2], in assay [7], in assay [3], in assay [8] and in assay [4] was greater than 100 µM each time. The TGI in assay [5] and in assay [6] was greater than 100 µM each time.
For `Cc1cccc(C)c1NC(=O)CCc1n[nH]c(=S)o1`, the TGI is greater than 100 µM in [1]; 85.1 µM in [2]; greater than 100 µM in [7]; greater than 100 µM in assay [3]; greater than 100 µM in assay [8]; greater than 100 µM in [4]. Further, the TGI was 56.7 µM in assay [5] and greater than 100 µM in assay [6].
Regarding `Clc1ccc(Nc2ccnc(NCCCNc3ccnc4cc(Cl)ccc34)n2)cc1`, the GI50 is 1.29 µM in [1], 1.74 µM in [10] and 1.82 µM in [4]. The TGI in assay [1] was 2.66 µM; in assay [10] it was 3.67 µM; in assay [4] it was 3.62 µM.
Regarding `S=c1nc(N2CCCCC2)ss1`, the TGI in [1] is 43.3 µM; in assay [7], 47.7 µM; in assay [3], greater than 100 µM; in [8] it was greater than 100 µM; in assay [4], greater than 100 µM; in [5], 18 µM. The compound further gave a TGI in assay [6] of 84.9 µM.
`CCOC(=O)/C(=C\c1ccc[nH]1)C(=O)c1ccccc1`: the TGI in assay [2], in assay [7], in assay [3], in assay [8], in [4] and in assay [5] was greater than 100 µM each time. In addition, in assay [6], the TGI was greater than 100 µM.
Take `CC(=O)/C=C/c1ccc(C)cc1`: the TGI in assay [1], in assay [2], in assay [7], in assay [3], in assay [8] and in assay [4] was greater than 100 µM throughout. Also, the TGI in [5] and in [6] was greater than 100 µM in each case.
With `CC(C)CN(CC(C)C)C(=O)C1CCCC[C@@H]1C(=O)O` (stereo not given in full), the TGI in [1], in [2], in assay [7], in assay [3], in assay [8] and in assay [4] was greater than 100 µM in each case. The compound further came in with a TGI in [5] greater than 100 µM.
As for `COc1cc2c(cn1)[nH]c1ccccc12`, the TGI in [2], in [7], in assay [3], in assay [8], in assay [4] and in [5] was greater than 100 µM each time. Also, the TGI in assay [6] is greater than 100 µM.
